Test results published in PMC10011747, “Targeting androgen receptor and the variants by an orally bioavailable Proteolysis Targeting Chimeras compound in castration resistant prostate cancer” (eBioMedicine, 2023).

Legend:
CWR22Rv1 xenograft = CWR22Rv1 xenograft efficacy study; assay type: in vivo
Experimental: Immunodifficient male C.B-17 SCID mice (NOD.CB17-Prkdc^scid/NcrCrlBltw) at 4–6 weeks of age were purchased from BioLASCO Taiwan Co., Ilan, Taiwan. All mice were housed in conventional cages in the AAALAC Full Accreditation (2011) in Industrial Technology Research Institute and were allowed to acclimatize and recover from shipping-related stress for one week prior to the study. The health of the mice was monitored by daily observations. Animals were kept in rooms at temperature of 22–26 °C with 40–70% humidity, positive pressure, 60% air recirculation, ventilation rate 15–20 changes per hour, and a controlled light–dark cycle (12–12 h). The order and location of each animal cage was randomly assigned to minimize potential confounders. CWR22Rv1 cells (5 × 10^6) were suspended in 100 μL of PBS with 30% Matrigel and subcutaneously implanted into the right flank of male C.B-17 SCID mice. Tumors were measured with calipers, and tumor size was calculated as follows: tumor volume (V) = (L × S^2)/2 (L, longest diameter, mm; S, shortest diameter, mm). When mean tumor volume reached 150–200 mm^3, the mice were randomly assigned into indicated groups (n = 5–6/group) and the day of initiating treatments was assigned as day 0. In the study using intraperitoneal (IP) injection, the mice received vehicle control (NMP: Cremophor: PBS = 1:2:7 (v:v:v)), ITRI-90 (10 mg/kg, BID) or ITRI-126 (10 mg/kg, BID) for the indicated days. In the study using oral (PO) gavage, the mice received vehicle control or ITRI-90 (100 mg/kg, BID) for 21 days. Tumor size and body weight of the animals were monitored and recorded two to three times per week. Mice were sacrificed when one of the tumor reached over 1000 mm^3 in size. Tumors were collected and immediately subjected to liquid nitrogen freezing and homogenization. The homogenized tumor samples were stored at −80 °C for subsequent western blotting analysis. The drug antitumor efficacy was presented as percentages of TGI of each tested animal, calculated as follows: [1 − (final tumor volume − initial tumor volume of the treated group)/average of (final tumor volume − initial tumor volume of the vehicle group)] × 100. Body weight of each mouse was also compared to that on the first day of treatment (day 0) and expressed as a percentage of day 0 value. All data points were included for calculation and the values are presented as mean ± SEM. Statistical analysis of the differences between two drug and vehicle treated groups was determined by two-tailed Student's t test. For negative control, same procedures as described above were followed. PC3 cells (5 × 10^6) mixing with 50% matrigel were subcutaneously implanted into both flanks of 8 male C.B-17 SCID mice, followed by random assignment for oral administration of vehicle control or ITRI-90 drug (100 mg/kg, BID) treatment (n = 4/group).

[1] = system: AR-negative PC3 prostate cancer model; assay: PC3 xenograft negative control study; assay type: in vivo, mouse; settings: PO 100 mg/kg twice daily
Experimental: Immunodifficient male C.B-17 SCID mice (NOD.CB17-Prkdc^scid/NcrCrlBltw) at 4–6 weeks of age were purchased from BioLASCO Taiwan Co., Ilan, Taiwan. All mice were housed in conventional cages in the AAALAC Full Accreditation (2011) in Industrial Technology Research Institute and were allowed to acclimatize and recover from shipping-related stress for one week prior to the study. The health of the mice was monitored by daily observations. Animals were kept in rooms at temperature of 22–26 °C with 40–70% humidity, positive pressure, 60% air recirculation, ventilation rate 15–20 changes per hour, and a controlled light–dark cycle (12–12 h). […] Tumors were measured with calipers, and tumor size was calculated as follows: tumor volume (V) = (L × S^2)/2 (L, longest diameter, mm; S, shortest diameter, mm). […] Tumor size and body weight of the animals were monitored and recorded two to three times per week. […] The drug antitumor efficacy was presented as percentages of TGI of each tested animal, calculated as follows: [1 − (final tumor volume − initial tumor volume of the treated group)/average of (final tumor volume − initial tumor volume of the vehicle group)] × 100. Body weight of each mouse was also compared to that on the first day of treatment (day 0) and expressed as a percentage of day 0 value. […]
Figure S15. […] (a) CWR22Rv1 and PC3 cell viability was detected upon 7 days treatment of ITRI-90. […]

AR-negative PC3 cells = assay: Cell viability, PC3; assay type: cell-based, human; settings: 7 days treatment
Experimental: (§1) Cells were seeded in triplicate in 96-well plates 1 day prior to drug treatment for all assays. For viability test and IC50 assessment, the alamarBlue™ Cell Viability Reagent (Thermo Fisher Scientific) was added to cells 7 days after PROTAC treatment, followed by fluorescence detection as the manufacturer instructed. The IC50 was calculated by dose-inhibition regression. For proliferation monitoring, 2, 4, 6 and 8 days after PROTAC treatment (day 0), viable cells were detected by MTT Cell Proliferation Kit I (Sigma–Aldrich) according to the manufacturer's instructions. Cellular caspase activity was measured by Caspase-Glo 3/7 Assay System (Promega) 1 or 2 days after the drug treatment.
Figure S15. ITRI-90 is ineffective for AR-n egative PC3 cells. (a) CWR22Rv1 and PC3 cell viability was detected upon 7 days treatment of ITRI-90. (b,c) Antitumor activity of ITRI -90 towards PC3 tumor xenografts.
PC3 tumor xenografts implanted in SCID mice were treated with ITRI-90 orally using 100 mg/kg twice daily dosing. The numbers of tumor in each group is as indicated. (b) Scatter plots of the tumor size. (c) Western blotting of AR and AR -V proteins in the tumors collected at the final time points. CWR22Rv1 xenograft samples from Figure 7i were used as positive control for AR and AR-V expression.
(1 picture or pasted object on this page, not shown here)

caspase 3/7 = assay: Caspase-Glo 3/7 activity; assay type: cell-based, human; settings: 5 μM LNCaP, 1 μM CWR22Rv1, two days after treatment
Experimental: as §1

SMILES	toxicity monitored by animal body weight (CWR22Rv1 xenograft; IP 10 mg/kg twice daily)	tumor growth inhibition (TGI) (CWR22Rv1 xenograft; IP 10 mg/kg twice daily, day 12, SCID mice, no hormone manipulation)	toxicity monitored by animal body weight (CWR22Rv1 xenograft; PO 100 mg/kg twice daily, 21 days)	tumor growth inhibition (TGI) (CWR22Rv1 xenograft; PO 100 mg/kg twice daily, day 21, SCID mice, no hormone ablation)	AR-FL and AR-Vs protein levels in tumors (CWR22Rv1 xenograft; PO 100 mg/kg twice daily, final time point, western blot)	antitumor activity towards PC3 tumor xenografts [1]	PC3 cell viability (AR-negative PC3 cells)	caspase 3/7 activity at lower concentrations (caspase 3/7)	tumor growth inhibition (TGI) (CWR22Rv1 xenograft; IP 10 mg/kg twice daily, day 14, SCID mice, no hormone manipulation)	toxicity monitored by animal body weight (CWR22Rv1 xenograft; mouse, in vivo, ip, 10 mg/kg)
Cc1ncsc1-c1ccc(CNC(=O)[C@@H]2C[C@H](O)CN2C(=O)[C@@H](NC(=O)COCCCCOc2ccc(C3CCN(C4=Nn5c(nnc5C(F)(F)F)CC4)CC3)cc2)C(C)(C)C)cc1 [ITRI-90, (2S,4S)-1-((S)-3,3-dimethyl-2-(2-(4-(4-(1-(3-(trifluoromethyl)-7,8-dihydro-[1,2,4]triazolo[4,3-b]pyridazin-6-yl)piperidin-4-yl)phenoxy)butoxy)acetamido)butanoyl)-4-hydroxy-N-(4-(4-methylthiazol-5-yl)benzyl)pyrrolidine-2-carboxamide]	without obvious toxicities	76.64 ± 11.1%	without obvious toxicity	71.73 ± 6.42%	reduced	ineffectiveness	ineffective			
O=C1CCC(N2Cc3c(NC(=O)COCCCCOc4ccc(C5CCN(C6=Nn7c(nnc7C(F)(F)F)CC6)CC5)cc4)cccc3C2=O)C(=O)N1 (stereo not shown) [ITRI-126, N-(2-(2,6-dioxopiperidin-3-yl)-1-oxoisoindolin-4-yl)-2-(4-(4-(1-(3-(trifluoromethyl)-7,8-dihydro-[1,2,4]triazolo[4,3-b]pyridazin-6-yl)piperidin-4-yl)phenoxy)butoxy)acetamide]								induced strong caspase activity two days after drug treatment	49.8 ± 11.1%	without obvious toxicities
